Patent publication EP2960339A1, “Method and kit for the identification of glycosyl transferase substrates” (Technische Universität München, priority 2014, dated 2015)

What was measured:
Format in all cases: biochemical
[1] = molecular target: T1, VvGT14a (Vitis vinifera, UniProt F6H0R6); conditions: for Km: monoterpenols at constant UDP-glucose […], UDP-glucose at fixed geraniol 100 µM, Tris-HCl pH 8.5, 30 °C; for kcat: pH 8.5
[2] = molecular target: T1, VvGT14a; test: Substrate screening, radiochemical activity assay with UDP-[14C]glucose; conditions: for conversion of putative substrate (in words): substrate screening, Figure 3
Experimental: (§1) In the initial screening, each reaction mixture (200 µL in total) contained Tris-HCl buffer (100 mM, pH 8, 10 mM 2-mercaptoethanol), 37 pmol UDP-[^14C]glucose (0.01 µCi, Biotrend, Köln, Germany), substrate (50 µL of a 1 mg/mL stock solution) and purified protein (0.5-0.8 µg/µL). The reaction mixture was incubated at 30 °C for 18.5 hours. The assays were stopped by adding 1 µL 24% trichloroacetic acid and extracted with 500 µL water-saturated 1-butanol. The organic phase was mixed with 2 mL Pro Flow P+ cocktail (Meridian Biotechnologies Ltd., Epsom, UK) and radioactivity was determined by liquid scintillation counting (LSC, Tri-Carb 2800TR, Perkin Elmer, Waltham MA, USA). Additionally, negative controls without substrate were performed.
(§2) After determining the optimal conditions for the best substrate of each gene, the substrate screening was repeated under these conditions.
(§3) The alleles of VvGT14a-c, 15a-c and 16 were isolated from V. vinifera cultivars and cloned in the expression vector pGEX-4T-1. The recombinant proteins were expressed with an N-terminal GST-tag, affinity purified and verified by SDS-PAGE and Western Blot using GST-specific antibody. Enzyme activity studies were performed with UDP-[^14C]glucose and various putative substrates (terpenols, flavonoids and different mono-alcohols) that are known to be glycosidically bound and present in grapes (Gunata et al., 1988).

[3] = molecular target: T1, VvGT14a; test: Enantioselectivity by chiral phase SPME-GC-MS after hydrolysis of the formed glucoside; conditions: racemic substrate, prolonged incubation (24 h), aglycone liberated by hydrolysis
Experimental: (§4) To determine the enantioselectivity of VvGT14 and VvGT15 the enantiomeric ratio of glucosidically bound citronellol and linalool was determined by enantioselective GC-MS. Following the incubation, residual citronellol and linalool were completely removed by extraction with dichloromethane. Citronellyl ß-D-glucoside which remained in the aqueous phase was hydrolyzed by HCl (2 mL, 0.1 M, pH 1) for one hour at 100 °C to release citronellol (Skouroumounis and Sefton, 2000). In case of linalyl ß-D-glucoside an enzymatic hydrolysis (AR 2000, citric acid buffer pH 4, 24 h) was applied due to the instability of linalool in acid solutions (Williams et al., 1982). […] After hydrolysis, citronellol and linalool were analyzed by SPME-GC-MS as described above.
(§5) GC-MS analysis was performed with a Varian GC-450 coupled to a Varian MS-240 ion-trap employing a Phenomenex Zebron ZB-WAXplus column (30 m x 0.25 mm x 0.25 µm, Aschaffenburg, Germany). Helium flow rate was 1 mL/min. The analysis was carried out in split mode (liquid injections) or splitless mode (SPME measurements) with 220 °C injector temperature. EI (electron impact ionization)-MS spectra were recorded from m/z 40 to 300 (ionization energy 70 eV; trap temperature 170 °C). The oven temperature program was 60 °C (3 min), 10 °C/min up to 250 °C (5 min). In case of SPME measurements, liberated aglycones were isolated for 10 min at 60°C using a fiber coated with a 85 µm film of polyacrylate (SUPELCO, Bellefonte, USA). After extraction the SPME fiber was desorbed for 10 min at 250°C in the injection port of the GC-MS system and the column oven program was carried out as described above. Enantioselective GC-MS analysis was performed with a Varian GC-450 coupled to a Varian MS-240 ion-trap. The column was a DiAcß (heptakis-(2,3-di-O-acetyl-6-O-tert.-butyldimethylsilyl)-ß-cyclodextrin), 26 m x 0.32 mm i.d. with a 0.1 µm film. […] GC-MS measurements were recorded in full scan mode. Selected ion monitoring (SIM) mode was used for quantification.

[4] = molecular target: T1, VvGT14a; test: Activity based profiling using a physiologic aglycone library (radio-TLC, GC-MS); conditions: Figure 7
Experimental: For the preparation of aglycone extracts 50 g (fresh weight) grape skins or 4 g (fresh weight) inflorescences of Gewurztraminer Gm 11-18 were ground to a fine powder in liquid nitrogen. The isolation of glycosides was carried out as described above (see metabolite analysis). The methanolic fraction, which was obtained after SPE, was enzymatically hydrolysed. Therefore, the dried sample was dissolved in citric-acid buffer (0.1 M, pH 4), 50 mg AR 2000 (an enzyme preparation with glucosidase activity prepared from Aspergillus niger; DSM Food Specialties Beverage Ingredients, Delft, Netherlands) was added and incubated for 24 h with exclusion of light. The liberated aglycones were extracted by 20 mL methyl-tert-butyl ether and the organic phase was reduced to 1000µL using a gentle stream of nitrogen.
Aliquots of this aglycone extract were incubated with UDP-glucose and various VvGT-enzymes. Optimum conditions at 30 °C for 24 hours were applied. Each solution contained 100 µL purified enzyme, 100-150 µL Tris-HCl buffer (100 mM, pH7.5 or 8.5, 10 mM 2-mercaptoethanol), 37 pmol UDP-[^14C]glucose (0.01 µCi) and 50-100 µL extract (dissolved in methyl-tert-butylether). The buffer was mixed with the extract and the organic solvent was gently vaporized with nitrogen. The missing volume was adjusted with buffer before the enzyme was added. The reaction was stopped by adding 1 µL 24% trichloroacetic acid and extracted with 500 µL ethyl acetate. After termination of the reaction free aglycones, which were not converted by VvGT14 and VvGT15, were measured via SPME-(Solid Phase Microextraction)-GC-MS. These residual, free aglycones were completely removed by extraction with dichloromethane. Enzymatically formed glucosides were extracted by ethyl acetate, which was removed under nitrogen. The residue was dissolved in methanol and analyzed by LC-MS to detect the generated monoterpenol glucosides. Enzymatic hydrolysis of the glucosides was performed using AR 2000 and 2 mL citric-acid-buffer. After hydrolysis, a 100 µL aliquot was used to detect volatile aglycones via SPME-GC-MS. The remaining solution was extracted with methyl-tert-butyl ether and reduced under nitrogen to approximately 200 µL. One µL were measured by GC-MS via liquid injection.
Assays containing UDP-[^14C]glucose and aglycone libraries or substrates were performed as described above and subsequently extracted with 500 µL ethyl acetate. The organic solvent was vaporized and the pellet was re-suspended in 10 µL methanol and was applied on Silica Gel 60 F254 plates (Merck, Darmstadt, Germany). The dried plates were developed in a solvent system chloroform:acetic acid:water (50/45/5, v:v:v). Plates were dried and analyzed by digital autoradiograph (digital autoradiograph, EG&G Berthold, Wildbad, Germany).
An aglycone library of the two tissues was obtained by enzymatic hydrolysis of the glycosides followed by liquid-liquid extraction of the released alcohols and acids. […] The formed glycosides were separated by thin layer chromatography (TLC) and visualized by radiodetection whereas identification could be achieved by LC-MS and NMR analysis and, after hydrolysis, by GC-MS and LC-MS (Figure 6).

[5] = molecular target: T2, VvGT15a (Vitis vinifera, UniProt F6GUW0); test: Substrate screening, radiochemical activity assay with UDP-[14C]glucose; conditions: substrate screening, Figure 3
Experimental: as §1, §2, §3

[6] = molecular target: VvGT15b (Vitis vinifera, UniProt F6GUW0); test: as above; conditions: substrate screening, Figure 3
Experimental: as §1, §2, §3

[7] = molecular target: VvGT15c (Vitis vinifera, UniProt F6GUW0); test: as above
Experimental: as §1, §2, §3

[8] = molecular target: VvGT16 (Vitis vinifera, UniProt F6HTJ4); test: as above; conditions: substrate screening, Figure 3
Experimental: as §1, §2, §3

[9] = molecular target: T2, VvGT15a; test: Enantioselectivity by chiral phase SPME-GC-MS after hydrolysis of the formed glucoside; conditions: racemic substrate, prolonged incubation (24 h), aglycone liberated by acid hydrolysis
Experimental: as §4, §5

[10] = citronellol enantiomers, Figure 12, highest level of extractable radioactivity = 100 %

T1 sequence (F6H0R6 entry or part of it): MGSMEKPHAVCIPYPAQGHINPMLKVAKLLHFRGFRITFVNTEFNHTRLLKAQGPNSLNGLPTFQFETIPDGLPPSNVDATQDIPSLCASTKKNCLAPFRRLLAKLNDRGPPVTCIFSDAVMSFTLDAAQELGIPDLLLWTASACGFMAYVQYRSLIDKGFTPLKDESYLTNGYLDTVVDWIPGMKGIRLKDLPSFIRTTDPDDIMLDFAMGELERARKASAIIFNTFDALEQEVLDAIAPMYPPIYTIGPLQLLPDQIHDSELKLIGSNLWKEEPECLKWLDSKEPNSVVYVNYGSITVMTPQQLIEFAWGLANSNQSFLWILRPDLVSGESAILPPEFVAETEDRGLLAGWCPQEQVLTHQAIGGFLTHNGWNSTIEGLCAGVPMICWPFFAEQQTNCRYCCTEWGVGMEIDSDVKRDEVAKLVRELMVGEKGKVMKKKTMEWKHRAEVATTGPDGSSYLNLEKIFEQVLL
VvGT15c, sequence (F6GUW0 entry or part of it): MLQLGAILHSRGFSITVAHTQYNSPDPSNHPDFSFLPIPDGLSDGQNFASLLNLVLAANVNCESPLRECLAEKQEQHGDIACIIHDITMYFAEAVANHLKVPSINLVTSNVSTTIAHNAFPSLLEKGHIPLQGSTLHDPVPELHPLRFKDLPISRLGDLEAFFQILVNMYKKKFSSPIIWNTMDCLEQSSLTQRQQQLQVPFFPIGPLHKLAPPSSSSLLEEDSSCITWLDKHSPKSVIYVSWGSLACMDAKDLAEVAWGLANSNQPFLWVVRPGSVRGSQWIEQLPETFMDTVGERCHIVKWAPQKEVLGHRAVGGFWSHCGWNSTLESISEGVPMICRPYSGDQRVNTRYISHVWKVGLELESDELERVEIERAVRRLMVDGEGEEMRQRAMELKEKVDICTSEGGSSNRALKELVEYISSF
T2 sequence (F6GUW0 entry or part of it): as above
VvGT16, sequence (F6HTJ4 entry or part of it): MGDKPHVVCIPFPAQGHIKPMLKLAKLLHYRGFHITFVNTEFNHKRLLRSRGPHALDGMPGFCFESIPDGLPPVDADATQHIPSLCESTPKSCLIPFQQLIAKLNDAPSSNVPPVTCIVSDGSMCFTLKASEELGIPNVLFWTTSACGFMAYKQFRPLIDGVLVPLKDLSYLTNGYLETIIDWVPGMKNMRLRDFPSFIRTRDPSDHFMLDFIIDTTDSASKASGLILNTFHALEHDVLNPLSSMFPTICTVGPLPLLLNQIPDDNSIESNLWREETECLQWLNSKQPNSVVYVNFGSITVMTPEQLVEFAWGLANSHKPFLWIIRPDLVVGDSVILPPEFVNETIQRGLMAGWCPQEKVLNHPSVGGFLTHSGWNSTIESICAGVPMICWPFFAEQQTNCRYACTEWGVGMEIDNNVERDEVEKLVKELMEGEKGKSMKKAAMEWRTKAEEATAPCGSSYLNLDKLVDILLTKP
VvGT15b, sequence (F6GUW0 entry or part of it): as the sequence (F6GUW0 entry or part of it) above

Q: Which Km [1] does the source give for `C=CC(C)(O)CCC=C(C)C` (racemic) [linalool (rac), (R,S)-3,7-dimethyl-1,6-octadien-3-ol] here?
A: 47 ± 0.1 µM

Q: What about the kcat [1] of the same compound?
A: 0.0003 s⁻¹

Q: What about the “conversion of putative substrate (in words)” value (from here on “conversion”) [2] of the same compound?
A: catalytic activity

Q: What about the “enantiomeric preference (in words)” value [3] of the same compound?
A: slight enrichment of the R-enantiomer

Q: What about the “aglycone liberated by enzymatic hydrolysis of the glucosides formed from the grape skin aglycone library (in words)” value [4] of the same compound?
A: remarkable quantities

Q: With `CC(C)=CCCC(C)CCO` (racemic) [citronellol (rac), (R,S)-3,7-dimethyl-6-octen-1-ol] as the compound, how does the Km [1] read?
A: 9 ± 0.3 µM

Q: What about the kcat [1] of the same compound?
A: 0.02 s⁻¹

Q: And the relative specific activity [2, 10]?
A: 100%

Q: And the “conversion” value [2]?
A: preferred

Q: And the “conversion” value [5]?
A: glucosylated primarily

Q: What about the “conversion” value [6] of the same compound?
A: glucosylated primarily

Q: What about the relative specific activity [7, 10] of the same compound?
A: 100%

Q: And the “conversion” value ([7]; substrate screening, Figure 3)?
A: glucosylated primarily

Q: And the “conversion” value [8]?
A: transformed

Q: And the “enantiomeric preference (in words)” value [3]?
A: no enantio-discrimination

Q: And the “enantiomeric preference (in words)” value [9]?
A: no enantio-discrimination

Q: What about the “aglycone liberated by enzymatic hydrolysis of the glucosides formed from the grape skin aglycone library (in words)” value [4] of the same compound?
A: remarkable quantities
